Earlier results as cited in patent US20180104231A1, “BENZALKONIUM CHLORIDE FREE OPHTHALMIC COMPOSITION CONTAINING (+)-(S)-4-[4-CHLOROPHENYL) (2-PYRIDYL) METHOXY] PIPERDINO] BUTYRIC ACID OR PHARMACOLOGICALLY ACCEPTABLE ACID ADDITION SALT, THEREOF” (INTERA HEALTHCARE PLC, priority 2016, published 2018).

Legend:
[1] = with the lapse of time
[2] = system: corneal epithelium and endothelium

Row | Stability to light in an aqueous solution [1] | Molecule | Effect of BAC exposure on cornea ([2]; BAC 0.0001%, minimum of 15 min exposure) | Effect of BAC on corneal epithelial cells ([2]; clinical concentration (0.005%))
1 | unstable to light | O=C(O)CCCN1CCC(O[C@@H](c2ccc(Cl)cc2)c2ccccn2)CC1.O=S(=O)(O)c1ccccc1 [bepotastine besilate] | – | –
2 | – | benzalkonium chloride [BAC] | physiological changes (edema) and ultra-structural changes to corneal epithelium and endothelium | cell wrinkling to lifting of corneal epithelial cells
